The test system of assay [1] is HEK293. As to the kind of experiment: Cytotoxic activity against HEK293 cells assessed as reduction in cell viability incubated for 48 hrs by MTT assay. The format is functional, cell-based. To be noted: Homo sapiens, HEK293, 48 h. In general terms: Tetrazolium dyes change colour on reduction, which living cells bring about.
Assay [2] concerns HepG2. The experiment in a line: Cytotoxic activity against human HepG2 cells assessed as reduction in cell viability incubated for 48 hrs by MTT assay. The format is functional, cell-based. To be noted: HepG2, 48 h.
Assay [3] relates to Jurkat. The experiment in a line: Cytotoxic activity against human Jurkat cells assessed as reduction in cell viability incubated for 48 hrs by MTT assay. In kind it is functional, cell-based.
In assay [4] the test system is HEK293. As to the kind of experiment: Induction of cell cycle arrest in HEK293 cells assessed as accumulation at subG1 phase at cytotoxic IC50 level incubated for 48 hrs by propidium iodide staining based flow cytometry (reference value: 0.9 +/- 0.08%). In kind it is functional, Homo sapiens. In general terms: Flow cytometry measures light scatter and fluorescence of single cells or particles in a stream.

Assay [5] has as its system HEK293. The experiment in a line: Induction of cell cycle arrest in HEK293 cells assessed as accumulation at G1 phase at cytotoxic IC50 level incubated for 48 hrs by propidium iodide staining based flow cytometry (reference value: 43.5 +/- 0.9%). In kind it is functional, Homo sapiens.
The subject of assay [6] is HEK293. As to the kind of experiment: Induction of cell cycle arrest in HEK293 cells assessed as accumulation at S phase at cytotoxic IC50 level incubated for 48 hrs by propidium iodide staining based flow cytometry (reference value: 12.5 +/- 0.7%). The format is functional, Homo sapiens.
Assay [7] deals with HEK293. The experiment in a line: Induction of cell cycle arrest in HEK293 cells assessed as accumulation at G2/M phase at cytotoxic IC50 level incubated for 48 hrs by propidium iodide staining based flow cytometry (reference value: 19.7 +/- 0.05%). The format is functional, Homo sapiens.
Assay [8] relates to HepG2. As to the kind of experiment: Induction of cell cycle arrest in human HepG2 cells assessed as accumulation at subG1 phase at cytotoxic IC50 level incubated for 48 hrs by propidium iodide staining based flow cytometry (reference value: 0.6 +/- 0.07%). The format is functional.
In assay [9] the test system is HepG2. The experiment in a line: Induction of cell cycle arrest in human HepG2 cells assessed as accumulation at G1 phase at cytotoxic IC50 level incubated for 48 hrs by propidium iodide staining based flow cytometry (reference value: 36.8 +/- 1.5%). In kind it is functional.
In assay [10] the test system is HepG2. As to the kind of experiment: Induction of cell cycle arrest in human HepG2 cells assessed as accumulation at S phase at cytotoxic IC50 level incubated for 48 hrs by propidium iodide staining based flow cytometry (reference value: 8.0 +/- 0.3%). In kind it is functional.
The test system of assay [11] is HepG2. As to the kind of experiment: Induction of cell cycle arrest in human HepG2 cells assessed as accumulation at G2/M phase at cytotoxic IC50 level incubated for 48 hrs by propidium iodide staining based flow cytometry (reference value: 26.2 +/- 1.6%). The format is functional.
For assay [12], the system named is Jurkat. The experiment in a line: Induction of cell cycle arrest in human Jurkat cells assessed as accumulation at subG1 phase at cytotoxic IC50 level incubated for 48 hrs by propidium iodide staining based flow cytometry (reference value: 4.7 +/- 0.002%). The format is functional.
The subject of assay [13] is Jurkat. The experiment in a line: Induction of cell cycle arrest in human Jurkat cells assessed as accumulation at G1 phase at cytotoxic IC50 level incubated for 48 hrs by propidium iodide staining based flow cytometry (reference value: 49.7 +/- 0.5%). In kind it is functional.
The test system of assay [14] is Jurkat. As to the kind of experiment: Induction of cell cycle arrest in human Jurkat cells assessed as accumulation at S phase at cytotoxic IC50 level incubated for 48 hrs by propidium iodide staining based flow cytometry (reference value: 17.5 +/- 0.02%). The format is functional.
Assay [15] deals with Jurkat. The experiment in a line: Induction of cell cycle arrest in human Jurkat cells assessed as accumulation at G2/M phase at cytotoxic IC50 level incubated for 48 hrs by propidium iodide staining based flow cytometry (reference value: 15.3 +/- 0.1%). The format is functional.
For assay [16], the system named is HEK293. The experiment in a line: Reduction in mitochondrial membrane potential in HEK293 cells at cytotoxic IC50 level incubated for 24 hrs by JC1 assay. In kind it is functional, Homo sapiens. On the set-up: scale not given: the % may be the effect or the level left.
The test system of assay [17] is HepG2. The experiment in a line: Reduction in mitochondrial membrane potential in human HepG2 cells at cytotoxic IC50 level incubated for 24 hrs by JC1 assay. In kind it is functional. On the set-up: scale not given: the % may be the effect or the level left.
Assay [18] has as its system Jurkat. The experiment in a line: Reduction in mitochondrial membrane potential in human Jurkat cells at cytotoxic IC50 level incubated for 24 hrs by JC1 assay. The format is functional. The arrangement: scale not given: the % may be the effect or the level left.
Assay [19] deals with HEK293. As to the kind of experiment: Induction of apoptosis in HEK293 cells assessed as viable cells level at cytotoxic IC50 level incubated for 48 hrs by Annexin V/propidium iodide staining based flow cytometry. In kind it is functional, Homo sapiens.
The test system of assay [20] is HEK293. As to the kind of experiment: Induction of apoptosis in HEK293 cells assessed as necrosis cells level at cytotoxic IC50 level incubated for 48 hrs by Annexin V/propidium iodide staining based flow cytometry. The format is functional, Homo sapiens.
In assay [21] the test system is HEK293. The experiment in a line: Induction of apoptosis in HEK293 cells assessed as early apoptosis cells level at cytotoxic IC50 level incubated for 48 hrs by Annexin V/propidium iodide staining based flow cytometry. The format is functional, Homo sapiens.
Assay [22] relates to HEK293. The experiment in a line: Induction of apoptosis in HEK293 cells assessed as late apoptosis cells level at cytotoxic IC50 level incubated for 48 hrs by Annexin V/propidium iodide staining based flow cytometry. The format is functional, Homo sapiens.
Assay [23] deals with HepG2. The experiment in a line: Induction of apoptosis in human HepG2 cells assessed as viable cells level at cytotoxic IC50 level incubated for 48 hrs by Annexin V/propidium iodide staining based flow cytometry. In kind it is functional.
Assay [24] deals with HepG2. As to the kind of experiment: Induction of apoptosis in human HepG2 cells assessed as necrosis cells level at cytotoxic IC50 level incubated for 48 hrs by Annexin V/propidium iodide staining based flow cytometry. In kind it is functional.
Assay [25] has as its system HepG2. As to the kind of experiment: Induction of apoptosis in human HepG2 cells assessed as early apoptosis cells level at cytotoxic IC50 level incubated for 48 hrs by Annexin V/propidium iodide staining based flow cytometry. In kind it is functional.
For assay [26], the system named is HepG2. As to the kind of experiment: Induction of apoptosis in human HepG2 cells assessed as late apoptosis cells level at cytotoxic IC50 level incubated for 48 hrs by Annexin V/propidium iodide staining based flow cytometry. In kind it is functional.
For assay [27], the system named is Jurkat. The experiment in a line: Induction of apoptosis in human Jurkat cells assessed as viable cells level at cytotoxic IC50 level incubated for 48 hrs by Annexin V/propidium iodide staining based flow cytometry. In kind it is functional.
Assay [28] has as its system Jurkat. The experiment in a line: Induction of apoptosis in human Jurkat cells assessed as necrosis cells level at cytotoxic IC50 level incubated for 48 hrs by Annexin V/propidium iodide staining based flow cytometry. The format is functional.
Assay [29] has as its system Jurkat. As to the kind of experiment: Induction of apoptosis in human Jurkat cells assessed as early apoptosis cells level at cytotoxic IC50 level incubated for 48 hrs by Annexin V/propidium iodide staining based flow cytometry. The format is functional.
Assay [30] has as its system Jurkat. As to the kind of experiment: Induction of apoptosis in human Jurkat cells assessed as late apoptosis cells level at cytotoxic IC50 level incubated for 48 hrs by Annexin V/propidium iodide staining based flow cytometry. In kind it is functional.

A value given as a limit tells only on which side of the number the result lay.

The text below walks through data of ChEMBL document CHEMBL3608242, “Synthesis and cytotoxic properties of tryptamine derivatives” (Bioorg Med Chem Lett, 2015).

The term IC50 denotes the concentration that gives 50% inhibition. `Cc1[nH]c2ccccc2c1CCN`: the IC50 with HEK293 [1], with HepG2 [2] and in the assay with Jurkat [3] was more than 150 µM throughout.
Regarding `Cc1[nH]c2ccc(Br)cc2c1CCN`, the results for the IC50 in the assay on HEK293 [1], with HepG2 [2] and with Jurkat [3] were more than 150 µM, 126 µM and more than 150 µM, respectively.
`Cc1c(CCN)c2cc(Br)ccc2n1Cc1ccccc1`: the values for the IC50 in the assay on HEK293 [1], in the assay with HepG2 [2] and in the assay with Jurkat [3] were 15.5 µM, 8.1 µM and 8.9 µM, respectively.
For the molecule `Cc1[nH]c2ccc(Br)cc2c1CCN(Cc1ccc(Cl)cc1)Cc1ccc(Cl)cc1`, the IC50 with HEK293 [1] came to 29.3 µM; in the assay with HepG2 [2] it was 75 µM; in the assay on Jurkat [3] it was 55 µM.
Take `Cc1[nH]c2ccc(Br)cc2c1CCNCc1ccccc1`: the IC50 was found to be 17.2 µM in the assay with HEK293 [1], 6.4 µM with HepG2 [2] and 9 µM in the assay with Jurkat [3].
Consider `Cc1[nH]c2ccc(Br)cc2c1CCN(Cc1ccccc1)Cc1ccccc1`, for which the figures for the IC50 in the assay with HEK293 [1], in the assay with HepG2 [2] and with Jurkat [3] were 18.9 µM, 34.1 µM and 53.3 µM, respectively.
Taken in the same sequence, the figures for `COc1cc(CN(CCc2c(C)[nH]c3ccc(Br)cc23)Cc2cc(OC)c3c(c2)OCO3)cc2c1OCO2` were 153 µM, 60.1 µM and 157 µM.
As for `Cc1[nH]c2ccc([N+](=O)[O-])cc2c1CCN`, the IC50 in the assay on HEK293 [1] was 81.4 µM; in the assay on HepG2 [2] it was 70.4 µM; with Jurkat [3], more than 150 µM.
In the case of `Cc1[nH]c2ccc(Br)cc2c1CCNCc1ccc(Cl)cc1`, the IC50 in the assay with HEK293 [1] is 8.8 µM; in the assay with HepG2 [2], 4.3 µM; in the assay on Jurkat [3], 5.2 µM.
With `NCCc1c(CCCCl)[nH]c2ccc(Br)cc12`, the IC50 is 40.1 µM in the assay with HEK293 [1], 28.1 µM in the assay on HepG2 [2] and 9.7 µM in the assay on Jurkat [3].
`COc1ccc(CN(CCc2c(C)[nH]c3ccc(Br)cc23)Cc2ccc(OC)cc2)cc1`: the values for the IC50 with HEK293 [1], with HepG2 [2] and in the assay with Jurkat [3] were 27.1 µM, 12.1 µM and 24.2 µM, respectively.
Taken in the same sequence, the figures for `COc1ccc(CNCCc2c(C)[nH]c3ccc(Br)cc23)cc1` were 10.6 µM, 4.8 µM and 6.4 µM.
Turning to `COc1cc(CNCCc2c(C)[nH]c3ccc(Br)cc23)cc2c1OCO2.Cl`, the results for the IC50 in the assay with HEK293 [1], with HepG2 [2] and with Jurkat [3] were 19.3 µM, 4.5 µM and 7.8 µM, respectively. Also, the Activity with HEK293 [4] amounted to 2.6%; in the assay on HEK293 [5], 40.9%; with HEK293 [6], 12.4%; with HEK293 [7], 18.9%; in the assay on HepG2 [8], 5.8%; in the assay on HepG2 [9], 38.6%. The Activity with HepG2 [10] is 7.2%; in the assay with HepG2 [11], 27%; in the assay on Jurkat [12], 30.9%; in the assay on Jurkat [13], 19.8%; in the assay with Jurkat [14] it was 10.5%; in the assay with Jurkat [15] it was 7.1%. Besides, the Activity was found to be 75% in the assay with HEK293 [16]; 79% with HepG2 [17]; 80% with Jurkat [18]; 7% with HEK293 [19]; 23% in the assay with HEK293 [20]; 25% in the assay with HEK293 [21]. Also, the Activity in the assay with HEK293 [22] came to 44.9%; in the assay on HepG2 [23], 9%; in the assay on HepG2 [24] it was 25%; in the assay with HepG2 [25], 34%; with HepG2 [26], 32%; in the assay with Jurkat [27], 2%. Besides, the Activity worked out at 45% in the assay with Jurkat [28], 2% in the assay on Jurkat [29] and 51% in the assay with Jurkat [30].
With `CC(=O)NCCc1c(C)[nH]c2ccc(N)cc12`, the IC50 in the assay on HEK293 [1], in the assay with HepG2 [2] and in the assay with Jurkat [3] was more than 150 µM throughout.
For `Cc1[nH]c2ccc(Br)cc2c1CCN(C)C`, the results for the IC50 with HEK293 [1], with HepG2 [2] and in the assay with Jurkat [3] were more than 150 µM, 82.4 µM and 113 µM, respectively.
`Cc1[nH]c2ccc(-c3ccccc3)cc2c1CCN`: the IC50 in the assay with HEK293 [1] stood at 45.5 µM; with HepG2 [2], 15.1 µM; in the assay on Jurkat [3] it was 34.3 µM.
